Species: Rattus norvegicus
Assay: Open TG-GATES - Regimen: Daily Repeat
Assay type: toxicity, organism-based, Sprague-Dawley
Set-up: regimen Daily Repeat, gender Male, age 6 weeks
Conditions: in vivo, po, route gavage; for TC / TG / TP / gamma-GTP / A/G / ALP / ALT / AST / BUN / CRE / Ca / Cl / GLC / IP / K / LDH / Na / PL / RALB: tissue Plasma; for APTT / Bas / Eos / Fbg / Hb / Ht / Lym / MCH / MCHC / MCV / Mono / Neu / PT / Plat / RBC / Ret / WBC: tissue Blood; for KIDNEY_L / KIDNEY_R / KIDNEY_TOTAL: tissue Kidney; for LIVER: tissue Liver
[1] = 100 mg/kg, […], dose level Low, time 28 day
[2] = 300 mg/kg, 72 h, dose level Middle, time 3 day
[3] = 300 mg/kg, […], dose level Middle, time 7 day
[4] = 300 mg/kg, […], dose level Middle, time 14 day
[5] = 300 mg/kg, […], dose level Middle, time 28 day

**Q.** Which results are given for `O=C(O)c1ccccc1Nc1ccccc1` [FENAMIC ACID]?
**A.** TC [1]: 76.6 mg/dL; TG [1]: 129.6 mg/dL; TP [1]: 6.2 g/dL; gamma-GTP [1]: 1 IU/L; TERMINAL_BW [2]: 241.8 g; APTT [2]: 15.8 s; Bas [2]: 0.4%; Eos [2]: 1%; Fbg [2]: 293.6 mg/dL; Hb [2]: 13.4 g/dL; Ht [2]: 40.1%; Lym [2]: 74.2%; MCH [2]: 20.9 pg; MCHC [2]: 33.4%; MCV [2]: 62.8 fL; Mono [2]: 2.8%; Neu [2]: 21.8%; PT [2]: 14 s; Plat [2]: 137.1 x10_4/uL; RBC [2]: 639.6 x10_4/ul; Ret [2]: 6.8%; WBC [2]: 91.3 x10_2/uL; KIDNEY_L [2]: 1 g; KIDNEY_R [2]: 1 g; KIDNEY_TOTAL [2]: 1.9 g; LIVER [2]: 12 g; A/G [2]: 0.9; ALP [2]: 1538.8 IU/L; ALT [2]: 37.4 IU/L; AST [2]: 64.8 IU/L; BUN [2]: 14.2 mg/dL; CRE [2]: 0.2 mg/dL; Ca [2]: 11.6 mg/dL; Cl [2]: 105.8 meq/L; GLC [2]: 183 mg/dL; IP [2]: 6.4 mg/dL; K [2]: 4.3 meq/L; LDH [2]: 119.8 IU/L; Na [2]: 142.8 meq/L; PL [2]: 156 mg/dL; RALB [2]: 2.7 g/dL; TC [2]: 82.4 mg/dL; TG [2]: 99.4 mg/dL; TP [2]: 5.7 g/dL; gamma-GTP [2]: 1.6 IU/L; TERMINAL_BW [3]: 275.7 g; TERMINAL_BW [4]: 344.9 g; TERMINAL_BW [5]: 435 g; APTT [3]: 16.6 s; Bas [3]: 0.6%; Eos [3]: 1.2%; Fbg [3]: 313 mg/dL; Hb [3]: 13.6 g/dL; Ht [3]: 40.4%; Lym [3]: 80.6%; MCH [3]: 20.8 pg; MCHC [3]: 33.7%; MCV [3]: 61.5 fL; Mono [3]: 2.4%; Neu [3]: 15.2%; PT [3]: 13.9 s; Plat [3]: 137.6 x10_4/uL; RBC [3]: 656.8 x10_4/ul; Ret [3]: 6.2%; WBC [3]: 89.7 x10_2/uL; APTT [4]: 15.8 s; Bas [4]: 0.8%; Eos [4]: 0.8%; Fbg [4]: 296 mg/dL; Hb [4]: 14.4 g/dL; Ht [4]: 42.2%; Lym [4]: 79.8%; MCH [4]: 20.1 pg; MCHC [4]: 34.2%; MCV [4]: 58.6 fL; Mono [4]: 2.2%; Neu [4]: 16.4%; PT [4]: 13.8 s; Plat [4]: 131.5 x10_4/uL; RBC [4]: 719.6 x10_4/ul; Ret [4]: 4.7%; WBC [4]: 104.7 x10_2/uL; APTT [5]: 17.6 s; Bas [5]: 0.4%; Eos [5]: 1.4%; Fbg [5]: 314.2 mg/dL; Hb [5]: 14.8 g/dL; Ht [5]: 42.7%; Lym [5]: 79.8%; MCH [5]: 18.8 pg; MCHC [5]: 34.7%; MCV [5]: 54.1 fL; Mono [5]: 2.6%; Neu [5]: 15.8%; PT [5]: 14.1 s; Plat [5]: 119.3 x10_4/uL; RBC [5]: 789.8 x10_4/ul; Ret [5]: 2.7%; WBC [5]: 92.3 x10_2/uL; KIDNEY_L [3]: 1.3 g; KIDNEY_R [3]: 1.2 g; KIDNEY_TOTAL [3]: 2.5 g; KIDNEY_L [4]: 1.4 g; KIDNEY_R [4]: 1.4 g; KIDNEY_TOTAL [4]: 2.7 g; KIDNEY_L [5]: 1.5 g; KIDNEY_R [5]: 1.5 g; KIDNEY_TOTAL [5]: 3 g; LIVER [3]: 13.4 g; LIVER [4]: 16.2 g; LIVER [5]: 19 g; A/G [3]: 0.9; ALP [3]: 1312 IU/L; ALT [3]: 36.6 IU/L; AST [3]: 63.4 IU/L; BUN [3]: 26.8 mg/dL; CRE [3]: 0.3 mg/dL; Ca [3]: 11.8 mg/dL; Cl [3]: 103.8 meq/L; GLC [3]: 185 mg/dL; IP [3]: 7 mg/dL; K [3]: 4.6 meq/L; LDH [3]: 108 IU/L; Na [3]: 143.6 meq/L; PL [3]: 150.4 mg/dL; RALB [3]: 2.8 g/dL; TC [3]: 80.8 mg/dL; TG [3]: 91.6 mg/dL; TP [3]: 6 g/dL; gamma-GTP [3]: 1.6 IU/L; A/G [4]: 0.8; ALP [4]: 1463.6 IU/L; ALT [4]: 36.8 IU/L; AST [4]: 58.4 IU/L; BUN [4]: 15.8 mg/dL; CRE [4]: 0.3 mg/dL; Ca [4]: 11.3 mg/dL; Cl [4]: 104 meq/L; GLC [4]: 178 mg/dL; IP [4]: 6.5 mg/dL; K [4]: 4 meq/L; LDH [4]: 102.2 IU/L; Na [4]: 144.2 meq/L; PL [4]: 160.8 mg/dL; RALB [4]: 2.8 g/dL; TC [4]: 80.8 mg/dL; TG [4]: 117.2 mg/dL; TP [4]: 6.2 g/dL; gamma-GTP [4]: 1.2 IU/L; A/G [5]: 0.8; ALP [5]: 942.2 IU/L; ALT [5]: 31 IU/L; AST [5]: 53.2 IU/L; BUN [5]: 15.6 mg/dL; CRE [5]: 0.3 mg/dL; Ca [5]: 11.3 mg/dL; Cl [5]: 103.8 meq/L; GLC [5]: 186.6 mg/dL; IP [5]: 6.7 mg/dL; K [5]: 4 meq/L; LDH [5]: 107.6 IU/L; Na [5]: 144.6 meq/L; PL [5]: 161.8 mg/dL; RALB [5]: 2.9 g/dL; TC [5]: 82.2 mg/dL; TG [5]: 100.8 mg/dL
